According to ChEMBL document CHEMBL3431459, “Roche carnitine palmitoyltransferase modulator screening data (supplementary data associated with the publication CHEMBL2216752)”:
≈ marks a conversion by molar mass, not a printed value.

Columns and labels:
[1] = SUPPLEMENTARY: Lipophilicity (log D) Determination by high-throughput shake-flask; format: physicochemical; conditions: octanol/water
[2] = molecular target: T1, Carnitine O-palmitoyltransferase 1, muscle isoform (Homo sapiens, UniProt Q92523); experiment: SUPPLEMENTARY: Inhibition of Carnitine palmitoyltransferase 1, muscle isoform; parameters: species or system Muscle tissue
T1 sequence (Q92523 whole entry): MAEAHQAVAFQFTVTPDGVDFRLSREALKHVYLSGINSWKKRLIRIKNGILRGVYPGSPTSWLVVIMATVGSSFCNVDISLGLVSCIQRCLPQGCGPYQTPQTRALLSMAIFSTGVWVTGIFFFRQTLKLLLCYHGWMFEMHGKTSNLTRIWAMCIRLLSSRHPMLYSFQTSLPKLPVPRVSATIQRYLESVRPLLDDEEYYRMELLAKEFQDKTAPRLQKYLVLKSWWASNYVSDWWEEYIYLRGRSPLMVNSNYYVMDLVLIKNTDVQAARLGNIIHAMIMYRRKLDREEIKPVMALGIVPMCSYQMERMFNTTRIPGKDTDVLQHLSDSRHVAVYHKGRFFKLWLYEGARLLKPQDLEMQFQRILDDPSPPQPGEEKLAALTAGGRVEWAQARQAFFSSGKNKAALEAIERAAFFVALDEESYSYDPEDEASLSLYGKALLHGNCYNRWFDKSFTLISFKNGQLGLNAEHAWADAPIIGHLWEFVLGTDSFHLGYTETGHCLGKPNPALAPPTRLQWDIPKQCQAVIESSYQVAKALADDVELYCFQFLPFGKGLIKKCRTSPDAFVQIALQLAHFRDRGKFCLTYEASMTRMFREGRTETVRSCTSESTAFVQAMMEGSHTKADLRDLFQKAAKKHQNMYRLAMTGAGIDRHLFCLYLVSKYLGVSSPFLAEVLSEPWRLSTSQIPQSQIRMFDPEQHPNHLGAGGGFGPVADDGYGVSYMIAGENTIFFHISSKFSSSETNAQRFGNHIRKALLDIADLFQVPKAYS

[3] = SUPPLEMENTARY: Lyophilisation Solubility Assay (LYSA); format: physicochemical; conditions: read-out: Kinetic_solubility
[4] = SUPPLEMENTARY: PAMPA permeability assay; format: physicochemical; conditions: read-out: Permeability
[5] = molecular target: T2, Carnitine O-palmitoyltransferase 1, liver isoform (Homo sapiens, UniProt P50416); experiment: (§1) SUPPLEMENTARY: Inhibition of Carnitine palmitoyltransferase 1, liver isoform
T2 sequence (P50416 whole entry): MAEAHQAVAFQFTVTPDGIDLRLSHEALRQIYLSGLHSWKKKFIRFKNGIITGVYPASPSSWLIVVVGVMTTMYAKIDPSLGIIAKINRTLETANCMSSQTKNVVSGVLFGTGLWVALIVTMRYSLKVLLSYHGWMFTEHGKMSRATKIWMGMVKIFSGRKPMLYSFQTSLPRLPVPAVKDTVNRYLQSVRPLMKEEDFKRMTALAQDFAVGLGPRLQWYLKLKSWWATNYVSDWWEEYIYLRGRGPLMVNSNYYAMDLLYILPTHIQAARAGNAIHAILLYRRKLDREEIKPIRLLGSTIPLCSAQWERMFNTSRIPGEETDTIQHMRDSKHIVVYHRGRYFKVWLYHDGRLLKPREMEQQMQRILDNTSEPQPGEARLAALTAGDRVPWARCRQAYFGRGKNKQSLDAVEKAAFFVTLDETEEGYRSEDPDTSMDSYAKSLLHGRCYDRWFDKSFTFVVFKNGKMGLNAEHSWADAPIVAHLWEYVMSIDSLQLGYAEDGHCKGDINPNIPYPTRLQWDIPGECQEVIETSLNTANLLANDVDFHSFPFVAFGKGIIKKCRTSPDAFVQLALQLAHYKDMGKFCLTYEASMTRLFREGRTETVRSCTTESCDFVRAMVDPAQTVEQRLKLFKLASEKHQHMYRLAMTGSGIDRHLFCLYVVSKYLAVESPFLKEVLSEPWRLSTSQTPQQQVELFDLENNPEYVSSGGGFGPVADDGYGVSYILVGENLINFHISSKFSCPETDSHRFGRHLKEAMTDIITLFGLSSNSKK

[6] = molecular target: T3, Carnitine O-palmitoyltransferase 1, liver isoform (Rattus norvegicus, UniProt P32198); experiment: as §1
T3 sequence (P32198 whole entry): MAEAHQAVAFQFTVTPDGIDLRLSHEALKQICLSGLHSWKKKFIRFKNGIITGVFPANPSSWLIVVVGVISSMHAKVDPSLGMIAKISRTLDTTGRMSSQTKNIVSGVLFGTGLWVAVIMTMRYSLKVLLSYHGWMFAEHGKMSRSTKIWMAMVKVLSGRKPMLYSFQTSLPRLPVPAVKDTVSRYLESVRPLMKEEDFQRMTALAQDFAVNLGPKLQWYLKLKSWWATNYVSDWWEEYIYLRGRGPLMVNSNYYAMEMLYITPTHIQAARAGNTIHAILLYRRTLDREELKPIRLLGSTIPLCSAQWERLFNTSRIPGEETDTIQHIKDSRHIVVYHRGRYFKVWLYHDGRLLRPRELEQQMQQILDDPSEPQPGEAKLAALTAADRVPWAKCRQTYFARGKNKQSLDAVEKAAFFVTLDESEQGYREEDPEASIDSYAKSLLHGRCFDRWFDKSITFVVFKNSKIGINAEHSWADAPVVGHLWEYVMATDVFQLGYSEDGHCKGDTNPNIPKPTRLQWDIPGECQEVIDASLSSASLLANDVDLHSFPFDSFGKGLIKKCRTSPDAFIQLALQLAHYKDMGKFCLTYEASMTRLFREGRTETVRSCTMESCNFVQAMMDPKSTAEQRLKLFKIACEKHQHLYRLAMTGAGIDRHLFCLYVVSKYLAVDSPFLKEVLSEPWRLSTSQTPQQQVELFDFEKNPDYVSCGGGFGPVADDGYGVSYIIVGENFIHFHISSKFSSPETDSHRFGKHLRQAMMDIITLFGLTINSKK

[7] = molecular target: T4, Carnitine O-palmitoyltransferase 2, mitochondrial (Rattus norvegicus, UniProt P18886); experiment: (§2) SUPPLEMENTARY: Inhibition of Carnitine palmitoyltransferase 2
T4 sequence (P18886 whole entry): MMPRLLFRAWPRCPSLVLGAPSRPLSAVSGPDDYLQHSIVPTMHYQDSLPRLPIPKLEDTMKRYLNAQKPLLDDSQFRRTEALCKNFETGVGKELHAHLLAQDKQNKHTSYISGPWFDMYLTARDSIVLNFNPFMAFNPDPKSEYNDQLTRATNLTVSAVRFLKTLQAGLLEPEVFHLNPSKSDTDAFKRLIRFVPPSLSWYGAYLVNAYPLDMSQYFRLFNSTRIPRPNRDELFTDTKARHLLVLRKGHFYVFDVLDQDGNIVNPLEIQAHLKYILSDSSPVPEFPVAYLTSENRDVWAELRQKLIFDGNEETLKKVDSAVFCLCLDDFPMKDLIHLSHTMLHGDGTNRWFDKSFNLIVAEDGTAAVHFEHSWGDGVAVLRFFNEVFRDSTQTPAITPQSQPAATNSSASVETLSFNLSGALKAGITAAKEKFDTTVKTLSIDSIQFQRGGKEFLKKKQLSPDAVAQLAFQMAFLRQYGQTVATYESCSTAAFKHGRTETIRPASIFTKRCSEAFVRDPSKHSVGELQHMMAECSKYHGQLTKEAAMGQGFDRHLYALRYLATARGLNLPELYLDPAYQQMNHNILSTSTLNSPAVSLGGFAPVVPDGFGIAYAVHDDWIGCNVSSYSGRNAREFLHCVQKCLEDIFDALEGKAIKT

[8] = molecular target: T5, Carnitine O-palmitoyltransferase 2, mitochondrial (Homo sapiens, UniProt P23786); experiment: as §2
T5 sequence (P23786 whole entry): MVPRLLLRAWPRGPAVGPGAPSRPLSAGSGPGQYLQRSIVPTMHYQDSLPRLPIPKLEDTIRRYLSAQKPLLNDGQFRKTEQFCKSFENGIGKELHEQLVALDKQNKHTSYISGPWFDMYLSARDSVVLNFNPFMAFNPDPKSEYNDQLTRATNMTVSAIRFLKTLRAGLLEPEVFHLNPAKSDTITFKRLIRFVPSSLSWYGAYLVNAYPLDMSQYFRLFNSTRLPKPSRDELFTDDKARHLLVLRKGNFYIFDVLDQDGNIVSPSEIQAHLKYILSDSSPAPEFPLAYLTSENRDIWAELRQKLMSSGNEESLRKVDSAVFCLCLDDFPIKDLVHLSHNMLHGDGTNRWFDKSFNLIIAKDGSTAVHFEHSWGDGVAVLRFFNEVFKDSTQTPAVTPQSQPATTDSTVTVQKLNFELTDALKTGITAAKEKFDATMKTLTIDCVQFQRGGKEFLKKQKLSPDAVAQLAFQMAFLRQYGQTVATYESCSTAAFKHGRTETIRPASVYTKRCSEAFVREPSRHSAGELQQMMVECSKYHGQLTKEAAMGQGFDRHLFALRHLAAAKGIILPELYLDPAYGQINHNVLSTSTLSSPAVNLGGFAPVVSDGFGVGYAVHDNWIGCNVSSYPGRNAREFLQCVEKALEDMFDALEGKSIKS

Compound	logD [1]	IC50 [2]	solubility kinetic [3]	Papp [4]	IC50 [5]	IC50 [6]	IC50 [7]	IC50 [8]
COc1ccc(Cl)cc1CN1C(=O)C(C)(C)c2ccc(C(=O)Nc3ccc(C(=O)O)cc3)cc21	1.83	2170 nM	136 µg/mL (≈ 284 µM)	0.94 ×10⁻⁶ cm/s	67.1 nM	126 nM	9030 nM	5510 nM
O=C([C@H]1CCCCN1C(=O)COc1ccccc1)N1Cc2ccc(C3CCOCC3)cc2C1	2.8	> 100000 nM	14 µg/mL (≈ 31.2 µM)	4.45 ×10⁻⁶ cm/s	63.8 nM	64.1 nM	477 nM	642 nM
COc1ccc(Cl)cc1S(=O)(=O)N1COCc2ccc(C(=O)Nc3ccc(C(=O)O)cc3)cc21	0.32	38600 nM	60 µg/mL (≈ 119 µM)	2.16 ×10⁻⁶ cm/s	59.7 nM	105 nM	16600 nM	3450 nM
COc1ccc(Cl)cc1S(=O)(=O)N1COc2c(F)cc(C(=O)Nc3ccc(C(=O)O)c(F)c3)cc21	0.63	4930 nM	59 µg/mL (≈ 112 µM)	1.87 ×10⁻⁶ cm/s	61.7 nM	84.4 nM	10500 nM	1950 nM
COc1ccc(Cl)cc1S(=O)(=O)N1COc2ccc(C(=O)Nc3ccc(CC(=O)O)cc3)cc21	0.28	504 nM	46 µg/mL (≈ 91.5 µM)	3.01 ×10⁻⁶ cm/s	159 nM	165 nM	> 100000 nM	> 100000 nM
COc1ccc(Cl)cc1S(=O)(=O)N(C)c1cc(C(=O)Nc2ccc(C(=O)O)cc2)cc2c1OCCO2	0.58	4050 nM	> 710 µg/mL	2.54 ×10⁻⁶ cm/s	219 nM	249 nM	29000 nM	20700 nM
COc1ccc(Cl)cc1S(=O)(=O)Nc1cc(C(=O)Nc2ccc(C(=O)O)cc2)cc(OC)c1OC	0.56	> 100000 nM	> 598 µg/mL	1.57 ×10⁻⁶ cm/s	43.6 nM	253 nM	1070 nM	3030 nM
NC(=O)COc1cccc(-c2noc([C@H]3CCCCN3C(=O)COc3ccccc3)n2)c1	2.51	> 100000 nM	57 µg/mL (≈ 131 µM)	2.49 ×10⁻⁶ cm/s	63.6 nM	147 nM	> 100000 nM	18500 nM
Cc1cc(C)cc(S(=O)(=O)N2CCc3ccc(C(=O)Nc4ccc(CC(=O)O)cc4)cc32)c1	2.42	6790 nM	5 µg/mL (≈ 10.8 µM)	4.05 ×10⁻⁶ cm/s	187 nM	133 nM	> 100000 nM	> 100000 nM
COc1ccc(Cl)cc1S(=O)(=O)N(C)c1cc(C(=O)Nc2nc(CC(=O)O)cs2)cc2c1OCCO2	-0.18	1560 nM	382 µg/mL (≈ 690 µM)	1.28 ×10⁻⁶ cm/s	80.5 nM	110 nM	> 100000 nM	> 100000 nM

Second part, the compound after the results:

logD [1]	IC50 [2]	solubility kinetic [3]	Papp [4]	IC50 [5]	IC50 [6]	IC50 [7]	IC50 [8]	Compound
2.17	> 100000 nM	33 µg/mL (≈ 74.6 µM)	1.63 ×10⁻⁶ cm/s	87 nM	205 nM	57900 nM	61400 nM	NS(=O)(=O)c1cccc(-c2noc([C@H]3CCCCN3C(=O)COc3ccccc3)n2)c1
2.9	> 100000 nM	11 µg/mL (≈ 25.7 µM)	2.24 ×10⁻⁶ cm/s	148 nM	479 nM	85500 nM	57300 nM	COC(=O)[C@H]1CCCC[C@@H]1c1nc([C@H]2CCCCN2C(=O)COc2ccccc2)no1
3.13	> 100000 nM	55 µg/mL (≈ 144 µM)	6.42 ×10⁻⁶ cm/s	228 nM	330 nM	> 100000 nM	16300 nM	Cc1cc(-c2nc([C@H]3CCCCN3C(=O)COc3ccccc3)no2)n(C)n1
2.36	> 100000 nM	143 µg/mL (≈ 370 µM)	11.5 ×10⁻⁶ cm/s	283 nM	936 nM	> 100000 nM	> 100000 nM	CCN(CC)C(=O)c1nc([C@H]2CCCCN2C(=O)COc2ccccc2)no1
